Assay results: PubChem BioAssay AID330 (DTP/NCI, 2004)
Where “and” joins values, the source holds several entries; their conditions need not be identical. Equal entries are not always repeated. Inconclusive results and toxic doses are left out.

Tested on: P388 leukemia ip, CD2F1 mice, survival T/C
Test: NCI In Vivo Anticancer Drug Screen. Data for tumor model P388 Leukemia (intraperitoneal) in CD2F1 (CDF1) mice
Details: endpoint: median survival time, higher = longer survival
In short: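 Mice carrying the transplanted tumor received test compound or vehicle. Survival was recorded in each group, and the value is the treated-group measurement divided by that of the vehicle-treated control group.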

[1] = dose: 1.56 mg/kg/injection, schedule: Q01DX009 (ip), vehicle: water
[2] = dose: 3.13 mg/kg/injection, schedule: Q01DX009 (ip), vehicle: water
[3] = dose: 6.25 mg/kg/injection, schedule: Q01DX009 (ip), vehicle: water
[4] = dose: 25.0 mg/kg/injection, schedule: Q01DX009 (ip), vehicle: water
[5] = dose: 12.5 mg/kg/injection, schedule: Q01DX009 (ip), vehicle: water
[6] = dose: 25.0 mg/kg/injection, schedule: Q01DX009 (ip), vehicle: Klucel (hydroxypropylcellulose) (HPC)
[7] = dose: 50.0 mg/kg/injection, schedule: Q01DX009 (ip), vehicle: Klucel (hydroxypropylcellulose) (HPC)
[8] = dose: 100.0 mg/kg/injection, schedule: Q01DX009 (ip), vehicle: Klucel (hydroxypropylcellulose) (HPC)
[9] = dose: 60.0 mg/kg/injection, schedule: Q01DX005 (ip), vehicle: saline with Tween-80
[10] = dose: 120.0 mg/kg/injection, schedule: Q01DX005 (ip), vehicle: saline with Tween-80
[11] = dose: 240.0 mg/kg/injection, schedule: Q01DX005 (ip), vehicle: saline with Tween-80
[12] = dose: 75.0 mg/kg/injection, schedule: Q01DX009 (ip), vehicle: saline with Tween-80

Nc1n[n+](-c2ccccc2)no1 was tested, and the T/C [1] was 110 % of control, the T/C (dose: 1.56 mg/kg/injection, schedule: Q03HX015 (ip), vehicle: water) was 117 % of control and the T/C (dose: 3.12 mg/kg/injection, schedule: Q01DX005 (ip), vehicle: water) was 104 % of control. For the same compound, the T/C (dose: 3.12 mg/kg/injection, schedule: Q03HX015 (ip), vehicle: water) was 119 % of control, the T/C [2] was 104 % of control and 108 % of control and 117 % of control and the T/C (dose: 3.13 mg/kg/injection, schedule: Q03HX015 (ip), vehicle: water) was 115 % of control. For the same compound, the T/C (dose: 6.25 mg/kg/injection, schedule: Q01DX009 (ip), vehicle: saline) was 123 % of control, the T/C [3] was 117 % of control and 118 % of control and the T/C (dose: 6.25 mg/kg/injection, schedule: Q03HX003 (ip), vehicle: water) was 112 % of control. The T/C (dose: 12.5 mg/kg/injection, schedule: Q03HX003 (ip), vehicle: water) was 117 % of control, the T/C (dose: 25.0 mg/kg/injection, schedule: Q01DX001 (ip), vehicle: water) was 104 % of control and the T/C (dose: 25.0 mg/kg/injection, schedule: Q01DX009 (ip), vehicle: saline) was 178 % of control. For the same compound, the T/C [4] was 169 % of control and 189 % of control and 195 % of control, the T/C (dose: 25.0 mg/kg/injection, schedule: Q03HX003 (ip), vehicle: water) was 117 % of control and the T/C (dose: 25.0 mg/kg/injection, schedule: Q03HX015 (ip), vehicle: water) was 161 % of control and 183 % of control. For the same compound, the T/C (dose: 50.0 mg/kg/injection, schedule: Q01DX001 (ip), vehicle: water) was 120 % of control, the T/C (dose: 50.0 mg/kg/injection, schedule: Q01DX009 (ip), vehicle: saline) was 214 % of control and the T/C (dose: 50.0 mg/kg/injection, schedule: Q03HX003 (ip), vehicle: water) was 123 % of control. The T/C (dose: 100.0 mg/kg/injection, schedule: Q01DX001 (ip), vehicle: water) was 114 % of control.

COc1cc2c(cc1OC)C(N)CCC2 (stereo unspecified) was tested, and the T/C [3] was 104 % of control, the T/C [5] was 96 % of control and the T/C [4] was 99 % of control. For the same compound, the T/C (dose: 50.0 mg/kg/injection, schedule: Q01DX009 (ip), vehicle: water) was 96 % of control and the T/C (dose: 100.0 mg/kg/injection, schedule: Q01DX009 (ip), vehicle: water) was 101 % of control.

In the case of Cn1c(N(CCN2CCOCC2)C(=O)/C=C\c2ccccc2)cc(=O)n(C)c1=O, the T/C (dose: 50.0 mg/kg/injection, schedule: Q01DX005 (ip), vehicle: saline with Tween-80) was 105 % of control, the T/C (dose: 50.0 mg/kg/injection, schedule: Q01DX005 (ip), vehicle: water) was 103 % of control and the T/C (dose: 100.0 mg/kg/injection, schedule: Q01DX005 (ip), vehicle: saline with Tween-80) was 100 % of control. The T/C (dose: 100.0 mg/kg/injection, schedule: Q01DX005 (ip), vehicle: water) was 112 % of control, the T/C (dose: 200.0 mg/kg/injection, schedule: Q01DX005 (ip), vehicle: saline with Tween-80) was 97 % of control and the T/C (dose: 200.0 mg/kg/injection, schedule: Q01DX005 (ip), vehicle: water) was 109 % of control.

CNc1nc2c(s1)c1c(O)c3c(O)c(C)c4c(c32)C(=O)C(C)(O/C=C/C(OC)C(C)C(OC(C)=O)C(C)C(O)C(C)C(O)C(C)/C=C/C=C(/C)C(=O)N1)O4 (stereo unspecified) was tested, and the T/C [6] was 98 % of control, the T/C [7] was 100 % of control and the T/C [8] was 106 % of control. The T/C (dose: 200.0 mg/kg/injection, schedule: Q01DX009 (ip), vehicle: Klucel (hydroxypropylcellulose) (HPC)) was 100 % of control.

CSC1(C)C(=O)Nc2cccc([N+](=O)[O-])c21 (stereo unspecified) was tested, and the T/C (dose: 100.0 mg/kg/injection, schedule: Q01DX001 (ip), vehicle: saline with Tween-80) was 100 % of control, the T/C (dose: 200.0 mg/kg/injection, schedule: Q01DX001 (ip), vehicle: saline with Tween-80) was 93 % of control and the T/C (dose: 400.0 mg/kg/injection, schedule: Q01DX001 (ip), vehicle: saline with Tween-80) was 100 % of control.

In the case of O=C1NCC2CCCCC12 (stereo unspecified), the T/C (dose: 50.0 mg/kg/injection, schedule: Q01DX005 (ip), vehicle: Klucel (hydroxypropylcellulose) (HPC)) was 107 % of control, the T/C (dose: 100.0 mg/kg/injection, schedule: Q01DX005 (ip), vehicle: Klucel (hydroxypropylcellulose) (HPC)) was 99 % of control and the T/C (dose: 200.0 mg/kg/injection, schedule: Q01DX005 (ip), vehicle: Klucel (hydroxypropylcellulose) (HPC)) was 100 % of control.

For C/C1=C\CC/C(C)=C/CC/C(C)=C/CC(C)(C)/C=C/C1, the T/C (dose: 25.0 mg/kg/injection, schedule: Q01DX009 (ip), vehicle: saline + Tween-80 + alcohol) was 112 % of control, the T/C (dose: 50.0 mg/kg/injection, schedule: Q01DX009 (ip), vehicle: saline + Tween-80 + alcohol) was 112 % of control and the T/C (dose: 100.0 mg/kg/injection, schedule: Q01DX009 (ip), vehicle: saline + Tween-80 + alcohol) was 111 % of control.

For CCCCCOP(=O)(N=[N+]=[N-])OCCCCC, the T/C (dose: 0.78 mg/kg/injection, schedule: Q01DX009 (ip), vehicle: saline with Tween-80) was 98 % of control and the T/C (dose: 1.56 mg/kg/injection, schedule: Q01DX009 (ip), vehicle: saline with Tween-80) was 98 % of control.

For C=CC[P+](CC)(c1ccccc1)c1ccccc1, the T/C (dose: 0.78 mg/kg/injection, schedule: Q01DX009 (ip), vehicle: saline) was 95 % of control, the T/C (dose: 1.56 mg/kg/injection, schedule: Q01DX009 (ip), vehicle: saline) was 88 % of control and the T/C (dose: 3.13 mg/kg/injection, schedule: Q01DX009 (ip), vehicle: saline) was 93 % of control.

In the case of COc1cccc2c1C(=O)c1c(O)c3c(c(O)c1C2=O)CC(O)(/C(CO)=N/NC(=O)CCC(=O)N/N=C(\CO)C1(O)Cc2c(O)c4c(c(O)c2C(OC2CC(N)C(O)C(C)O2)C1)C(=O)c1c(OC)cccc1C4=O)CC3OC1CC(N)C(O)C(C)O1 (stereo unspecified), the T/C (dose: 0.78 mg/kg/injection, schedule: Q01DX009 (ip), vehicle: water) was 152 % of control, the T/C [1] was 170 % of control and 196 % of control and the T/C (dose: 2.35 mg/kg/injection, schedule: Q04DX003 (ip), vehicle: water) was 110 % of control. The T/C [2] was 218 % of control and 222 % of control, the T/C (dose: 4.7 mg/kg/injection, schedule: Q04DX003 (ip), vehicle: water) was 114 % of control and the T/C [3] was 114 % of control and 309 % of control. For the same compound, the T/C (dose: 9.4 mg/kg/injection, schedule: Q04DX003 (ip), vehicle: water) was 121 % of control and 124 % of control, the T/C [5] was 102 % of control and 86 % of control and the T/C (dose: 18.8 mg/kg/injection, schedule: Q04DX003 (ip), vehicle: water) was 154 % of control. For the same compound, the T/C (dose: 37.5 mg/kg/injection, schedule: Q04DX003 (ip), vehicle: water) was 181 % of control and the T/C (dose: 75.0 mg/kg/injection, schedule: Q04DX003 (ip), vehicle: water) was 118 % of control.

CC1C(=O)C(C)C(c2ccc(Cl)cc2)OC1c1ccccc1 (stereo unspecified) was tested, and the T/C (dose: 50.0 mg/kg/injection, schedule: Q01DX001 (ip), vehicle: Klucel (hydroxypropylcellulose) (HPC)) was 94 % of control, the T/C (dose: 100.0 mg/kg/injection, schedule: Q01DX001 (ip), vehicle: Klucel (hydroxypropylcellulose) (HPC)) was 95 % of control and the T/C (dose: 200.0 mg/kg/injection, schedule: Q01DX001 (ip), vehicle: Klucel (hydroxypropylcellulose) (HPC)) was 105 % of control.

With Nc1ccc(Cl)cn1 the T/C (dose: 50.0 mg/kg/injection, schedule: Q01DX009 (ip), vehicle: saline with Tween-80) was 90 % of control, the T/C (dose: 100.0 mg/kg/injection, schedule: Q01DX009 (ip), vehicle: saline with Tween-80) was 99 % of control and the T/C (dose: 200.0 mg/kg/injection, schedule: Q01DX009 (ip), vehicle: saline with Tween-80) was 99 % of control.

In the case of O=C(Nc1nccs1)Nc1cc(C(F)(F)F)ccc1Cl, the T/C [6] was 102 % of control, the T/C [7] was 108 % of control and the T/C [8] was 97 % of control.

CC(Cl)C(=O)Nc1cc2ccccc2oc1=O (stereo unspecified) was tested, and the T/C [9] was 106 % of control, the T/C [10] was 94 % of control and the T/C [11] was 93 % of control.

CSc1nc(NC2OCC(OC(C)=O)C(OC(C)=O)C2OC(C)=O)c(N=CC=Nc2c(NC3OCC(OC(C)=O)C(OC(C)=O)C3OC(C)=O)nc(SC)n(C)c2=O)c(=O)n1C (stereo unspecified) was tested, and the T/C [9] was 95 % of control, the T/C [10] was 91 % of control and the T/C [11] was 92 % of control.

In the case of O=C(Nc1ccccc1O)/C(Cl)=C/Cl, the T/C (dose: 33.0 mg/kg/injection, schedule: Q01DX009 (ip), vehicle: saline with Tween-80) was 120 % of control, the T/C [12] was 115 % of control and the T/C (dose: 100.0 mg/kg/injection, schedule: Q04DX003 (ip), vehicle: saline with Tween-80) was 105 % of control. The T/C (dose: 200.0 mg/kg/injection, schedule: Q04DX003 (ip), vehicle: saline with Tween-80) was 120 % of control.

O=c1cc(O)n(-c2ccccc2)c(=O)n1-c1ccccc1 was tested, and the T/C [12] was 102 % of control, the T/C (dose: 150.0 mg/kg/injection, schedule: Q01DX009 (ip), vehicle: saline with Tween-80) was 100 % of control and the T/C (dose: 300.0 mg/kg/injection, schedule: Q01DX009 (ip), vehicle: saline with Tween-80) was 100 % of control.
